In one test the test system is TRP-1 mRNA. As to the kind of experiment: TRP-1 mRNA expression through real-time PCR in α-MSH-treated B16F10. The format is cell-based, mouse. As to conditions: at 100 µg/mL. On the procedure:
As cell lines, RAW 264.7, B16F10 and HacaT cells were aliquoted at 3 x 10^5 cells/well to a 6-well plate and cultured in a 5% CO2 incubator at 37°C for 24 hr. Then, the culture medium was replaced with serum-free DMEM, after which, in order to induce cell inflammation, whitening and wrinkle reduction, RAW 264.7 and B16F10 were treated with lipopolysaccharide (LPS) and alpha-melanocyte-stimulating hormone (α-MSH), respectively, at 1 ppm/well, and the cells were treated with each sample solution at different concentrations and then cultured in a 5% CO2 incubator at 37°C for 24 hr. As for HacaT cells, all experimental groups except the untreated group were washed once with PBS, added with PBS, and irradiated with UV-B (300 mJ/cm^2). After irradiation, the cells were treated with the sample solution at different concentrations and cultured for 24 hr to 48 hr. […] Thereafter, RNA was quantified using absorbance, and cDNA was then synthesized using a TProfessional basic thermocycler instrument. Thereafter, 40 PCR cycles of 95°C for 10 sec, 60°C for 15 sec, and 72°C for 20 sec were performed using Power SYBR Green PCR Master Mix reagents, primers and cDNA and using a Step One real-time PCR system, and quantitative analysis was conducted using an analysis program.
The inhibition rate of TRP-1 mRNA expression by AIE was determined through real-time PCR.

For test [1] the following is noted: Hyaluronic acid + iron 10 ppm; sample at 0.2%.
Excerpt: When hyaluronic acid is degraded by heavy metals, the viscosity of the solution decreases, so the lower the viscosity, the greater the degradation of hyaluronic acid.

Data on 2 molecules can be found in EP3741379A1, “COSMETIC COMPOSITION COMPRISING AZADIRACHTA INDICA LEAF EXTRACT” (HONEST CO.,LTD., priority 2019, dated 2020).

On to `OC[C@H]1O[C@@H](Oc2ccc(O)cc2)[C@H](O)[C@@H](O)[C@@H]1O` [arbutin], for which the “inhibition of TRP-1 mRNA expression” value with TRP-1 mRNA is 14.86%.

Turning to `O=C([O-])CN(CCN(CC(=O)O)CC(=O)O)CC(=O)[O-].[Na+].[Na+]` [EDTA-2Na], the Viscosity in test [1] was 7,800 cp.
